Two compounds from ChEMBL document CHEMBL1156696, “Structure activity relationships of quinoline-containing c-Met inhibitors” (Eur J Med Chem, 2008) can be followed below.

In test [1] the target is T1, Hepatocyte growth factor receptor (Homo sapiens, UniProt P08581). The test can be described thus: Inhibition of human activated c-Met at 1 uM by PK/LDH coupled kinetic assay.
The target of test [2] is T1, Hepatocyte growth factor receptor. The test can be described thus: Inhibition of human activated c-Met by PK/LDH coupled kinetic assay.

T1 sequence (P08581 whole entry): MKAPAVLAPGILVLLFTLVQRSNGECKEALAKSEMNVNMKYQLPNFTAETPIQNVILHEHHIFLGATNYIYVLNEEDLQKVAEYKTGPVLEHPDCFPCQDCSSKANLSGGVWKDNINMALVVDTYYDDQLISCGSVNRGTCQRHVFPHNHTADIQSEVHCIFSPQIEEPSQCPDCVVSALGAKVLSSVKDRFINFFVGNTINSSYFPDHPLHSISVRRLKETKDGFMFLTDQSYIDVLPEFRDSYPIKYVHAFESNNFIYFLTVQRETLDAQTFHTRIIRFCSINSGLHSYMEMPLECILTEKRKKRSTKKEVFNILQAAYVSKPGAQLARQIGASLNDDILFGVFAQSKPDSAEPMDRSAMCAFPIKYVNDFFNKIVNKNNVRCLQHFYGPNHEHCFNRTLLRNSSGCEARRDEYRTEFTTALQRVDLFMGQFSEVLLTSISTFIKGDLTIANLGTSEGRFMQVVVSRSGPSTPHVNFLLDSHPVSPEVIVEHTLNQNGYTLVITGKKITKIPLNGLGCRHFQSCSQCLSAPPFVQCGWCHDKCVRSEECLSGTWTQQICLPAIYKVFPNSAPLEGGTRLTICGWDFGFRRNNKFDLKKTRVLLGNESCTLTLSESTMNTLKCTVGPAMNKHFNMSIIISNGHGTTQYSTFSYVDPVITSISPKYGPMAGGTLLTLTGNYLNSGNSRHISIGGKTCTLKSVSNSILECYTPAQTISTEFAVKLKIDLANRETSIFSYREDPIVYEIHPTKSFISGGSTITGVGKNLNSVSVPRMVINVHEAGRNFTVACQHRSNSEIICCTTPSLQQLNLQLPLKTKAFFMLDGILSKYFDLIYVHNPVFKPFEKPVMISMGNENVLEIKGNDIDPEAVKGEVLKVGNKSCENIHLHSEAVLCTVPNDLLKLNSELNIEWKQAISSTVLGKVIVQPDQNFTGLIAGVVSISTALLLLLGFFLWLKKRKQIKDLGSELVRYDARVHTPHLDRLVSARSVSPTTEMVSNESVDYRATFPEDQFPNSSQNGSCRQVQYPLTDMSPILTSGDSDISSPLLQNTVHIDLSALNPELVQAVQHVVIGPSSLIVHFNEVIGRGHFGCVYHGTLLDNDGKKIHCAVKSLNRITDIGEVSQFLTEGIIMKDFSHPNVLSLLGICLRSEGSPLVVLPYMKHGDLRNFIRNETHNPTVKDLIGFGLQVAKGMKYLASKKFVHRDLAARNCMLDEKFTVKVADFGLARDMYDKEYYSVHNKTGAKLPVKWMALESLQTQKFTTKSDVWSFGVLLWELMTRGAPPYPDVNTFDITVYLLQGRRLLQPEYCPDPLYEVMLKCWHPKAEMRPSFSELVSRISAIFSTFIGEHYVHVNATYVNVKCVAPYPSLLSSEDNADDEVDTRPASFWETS

`COc1cc2nccc(Oc3ccc(N)nc3)c2cc1OC`: the inhibition in test [1] stood at 2%.

With `COc1cc2nccc(Oc3ccc(NC(=O)N4CCNCC4)nc3)c2cc1OC`, in test [2], the Ki was more than 30 µM.
